Measured values taken from patent publication US20030054047A1 (priority 2001, published 2003).
Values after ≈ are worked out from the molar mass of the structure shown.

What was measured:
Influenza virus A/90-15 [1] = assay: microbe, parasite or virus in culture; type: cell-based, Influenza virus type A (H3N2) strain Jifeng A/90-15
Influenza virus A/90-15 [2] = assay: Preventive assay: MDCK cells pre-treated 24 hours, then infected, influenza A; type: cell-based, Influenza virus type A (H3N2) strain Jifeng A/90-15; conditions: drug added 24 hours before infection
Procedure: (§1) Preventive assay: Cell culture plate pre-treated with different concentrations of sample solutions for 24 hours, washed out the drugs, then infected with viruses, incubated, washed, observed and calculated the inhibition % as above.

Influenza virus B/97-13 [3] = assay: Preventive assay: MDCK cells pre-treated 24 hours, then infected, influenza B; type: cell-based, Influenza virus type B strain Jifeng B/97-13; conditions: drug added 24 hours before infection
Procedure: as §1

Influenza virus B/97-13 [4] = assay: microbe, parasite or virus in culture; type: cell-based, Influenza virus type B strain Jifeng B/97-13

## NC(=O)c1ncn([C@@H]2O[C@H](CO)[C@@H](O)[C@H]2O)n1 [Ribavirin, 1-β-D-ribafuranosyl-1,2,4-triazole-3-carboxamide]
Influenza virus A/90-15 [1]
  Inhibition of virus CPE (in words): effective
Influenza virus A/90-15 [1]; unidentified influenza virus, MDCK, read-out: Influenza virus A/90-15 IC50
  IC50: 70 ± 40 µg/mL (≈ 287 µM)
Influenza virus A/90-15 [2]
  Activity on pretreatment for 24 hours (in words): effective
Influenza virus B/97-13 [3]
  Activity on pretreatment for 24 hours (in words): effective
Influenza virus B/97-13 [4]
  Inhibition of virus CPE (in words): effective
Influenza virus B/97-13 [4]; unidentified influenza virus, MDCK, read-out: Influenza virus B/97-13 IC50
  IC50: 60 ± 30 µg/mL (≈ 246 µM)
